Where two headings read alike, the source gives them in different places.
What was measured:
[1] = tested on: Tg(tauP301L)4510 mice; experiment: Immunohistochemistry (AT8) and Bielschowsky stain of hippocampus in Tg4510 mice; format: in vivo, mouse; conditions: chronic 4 months
Procedure: (§1) Animals: Tg(tauP301L)4510 mice were generated as previously described (Santacruz et al., 2005, Science 309: 476-481). Animals were bred and housed at the McLaughlin Research Institute (Great Falls, Mont.). All experiments were approved by the MRI Institutional Animal Care and Use Committee (IACUC).
Immunohistochemistry: To examine changes in tangle pathology, a hemibrain was dissected and immersion fixed in 10% neutral buffered formalin for 24-48 h and subsequently embedded in paraffin blocks. 10 micron serial coronal sections were mounted onto Superfrost Plus slides, and stained using Bond Intense R kit. To detect dystrophic AT8 neurons, mounted slides were pretreated with antigen retrieval solutions for 10 min followed by washes with BOND wash buffer. Sections were subsequently quenched with hydrogen peroxide in Bond Intense R kit, blocked with M.O.M. blocking buffer (M.O.M Immunodetection Kits, Vector Laboratories), and then incubated with pS202/205 primary antibody (1:500; ThermoScientific). Sections were then incubated sequentially with biotinylated donkey anti-mouse secondary antibody (1:200; Jackson Immunoresearch), Streptavidin-HRP, and 3,3′-diaminobenzidine (both BOND Intense R kit). To detect agyrophilic tangles, sections were deparafinized, rehydrated in distilled water and treated with formaldehyde (4%) overnight at 37° C. Sections were washed in tap water, incubated in a 20% silver nitrate solution for 15 min in the dark, washed, incubated with ammoniated silver solution for 10 min in the dark, washed in ammonia water, and treated with developer. Sections were subsequently washed in ammonia water, distilled water, thiosulfate sodium, dehydrated and mounted.

[2] = tested on: Tg(tauP301L)4510 mice; experiment: Western blot of O-GlcNAcylation and tau phosphorylation in brain of Tg4510 mice; format: in vivo, mouse
Procedure: as §1
Tau immunoprecipitation: To immunoprecipitate tau protein from brain lysates a Crosslink Immunoprecipitation kit (Pierce 26147) was used. The A/G resin was crosslinked to 10 μg of the HT7 tau antibody (Thermo Scientific MN1000) or control mouse IgG (Santa Cruz Biotech sc-2025) via the manufacturer's protocol. 250 μg of brain lysates prepared as described below was incubated with the resin-coupled tau antibody overnight at 4-C. Samples were eluted with 50 μl of low pH Elution buffer and immediately centrifuged into collection tubes containing 5 μl of 1M Tris, pH 9.5. Immunoprecipitated tau was subjected to Western blotting as described below.
Western Blot: To examine changes in O-GlcNAcylation and phosphorylation, animals were euthanized 4 h after injection in the acute or subchronic studies and 24 h after the last injection in the chronic study. Hemi-forebrains were rapidly dissected and frozen on dry ice. Tissue samples were homogenized in Phosphosafe Buffer (EMD Chemicals), followed by a low-speed centrifugation (15,000 g) to remove cellular debris. The resulting supernatant (low-speed supernatant, Lss) was assayed to determine protein concentrations by Lowry method. O-GlcNAcylation and phosphorylation were determined in 20 μg protein samples subjected to 4-15% SDS-PAGE (Tris-HCl gels, Bio-Rad), followed by a transfer to nitrocellulose membranes (Invitrogen, IBlot system). Membranes were blocked in Licor blocking buffer at room temperature for 1 h and incubated in primary antibody overnight at 4° C. Total protein O-GlcNAcylation was detected using the RL2 antibody (1:500, ThermoScientific), tau O-GlcNAcylation was detected using the Otau(S400) antibody (1:500) and tau phosphorylation was detected using AT8 (1:500, ThermoScientific), pS396, pS262, pS356 (1:500, Abcam) and pS400 (1:5000, GenScript). GAPDH (1:1000, Abcam) or total tau (1:50,000 ThermoScientific) antibodies served as internal loading controls. Membranes were incubated with species-specific fluorophore-conjugated secondary (1:10,000; Licor) antibodies for 1 h at room temperature and detected using the Licor Odyssey. […]

[3] = molecular target: T1, His-Tagged hOGA (Homo sapiens, UniProt O60502); experiment: Human O-GlcNAcase enzyme inhibition assay; format: biochemical
T1 sequence (O60502 1-916): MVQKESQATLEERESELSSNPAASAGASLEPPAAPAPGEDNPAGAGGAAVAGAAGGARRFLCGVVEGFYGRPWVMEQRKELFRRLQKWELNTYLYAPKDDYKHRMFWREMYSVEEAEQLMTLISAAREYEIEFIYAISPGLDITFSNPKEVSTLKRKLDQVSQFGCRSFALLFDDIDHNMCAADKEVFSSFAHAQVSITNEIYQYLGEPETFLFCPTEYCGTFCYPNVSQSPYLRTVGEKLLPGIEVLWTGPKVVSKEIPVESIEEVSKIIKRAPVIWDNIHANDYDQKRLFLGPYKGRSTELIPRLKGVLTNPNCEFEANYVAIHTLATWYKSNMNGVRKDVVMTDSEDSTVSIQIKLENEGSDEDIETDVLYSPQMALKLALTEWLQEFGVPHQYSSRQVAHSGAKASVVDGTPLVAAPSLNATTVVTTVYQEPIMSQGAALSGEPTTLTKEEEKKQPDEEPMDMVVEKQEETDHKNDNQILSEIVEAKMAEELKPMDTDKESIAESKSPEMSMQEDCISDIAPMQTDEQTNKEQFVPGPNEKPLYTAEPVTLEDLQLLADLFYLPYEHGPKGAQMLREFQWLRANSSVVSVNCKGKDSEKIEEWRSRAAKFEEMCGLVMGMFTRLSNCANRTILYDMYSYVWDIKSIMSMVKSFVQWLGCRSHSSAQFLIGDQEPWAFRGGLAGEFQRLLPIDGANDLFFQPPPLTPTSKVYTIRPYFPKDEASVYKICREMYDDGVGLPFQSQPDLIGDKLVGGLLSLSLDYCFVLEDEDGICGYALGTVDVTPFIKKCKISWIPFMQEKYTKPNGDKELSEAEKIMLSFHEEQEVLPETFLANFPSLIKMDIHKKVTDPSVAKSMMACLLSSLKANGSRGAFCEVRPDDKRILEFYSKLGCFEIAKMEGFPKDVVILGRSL
Procedure: The following reaction components were added to a final volume of 10 μL in Mcllvaine's Buffer (pH 6.5): 20 nM His-Tagged hOGA and 10 μM Fluorescein mono-beta-D-(2-deoxy-2-N-acetyl) glucopyranoside (FL-GlcNAc; Marker Gene Technologies Inc, Part # M1485). […] The amount of fluorescence measured was plotted against the concentration of inhibitor to produce a sigmoidal dose response curve, from which an IC50 was calculated.

[4] = tested on: B35 rat neuroblastoma cells; experiment: Cellular O-GlcNAcylation assay (tau O-GlcNAc S400, ICC); format: cell-based; conditions: Neuroblastoma cell, 16 h, tau O-GlcNAcylated at serine 400
Procedure: The following day cells were treated with appropriate concentration of a solution of inhibitor for 16 h at 37° C. in 5% CO2. Cells were fixed in 100 μl 4% paraformaldehyde for 15 min at room temperature, followed by three washes in PBS buffer. The cells were then permeabilized with 0.1% Triton X-100 for 60 min at room temperature. After three washes in PBS the cells were blocked with 10% goat serum containing 1% BSA in PBS buffer for two hours at room temperature. The cells were then incubated with a monoclonal rabbit antibody specific for tau O-GlcNAcylated at serine 400 (Epitomics) at a 1:1000 dilution overnight at 4° C. […] To calculate an EC50 the total peak intensity was plotted against the concentration of inhibitor to produce a sigmoidal dose response curve.

[5] = 20 nM His-Tagged hOGA, 10 μM FL-GlcNAc, pH 6.5, 60 min, read-out: hOGA enzyme inhibition (IC50)

For `CCN=C1N[C@@H]2[C@@H](O)[C@H](O)[C@@H](CO)O[C@@H]2S1` [ThiametG], the “pS202/205 (AT8) positive dystrophic neurons” value ([1]; CA1 region of the hippocampus) was “significantly reduced”, the “tangle pathology (Bielschowsky staining)” value ([1]; CA1 region of the hippocampus) was “significant reduction” and the “pS202/205 (AT8) positive dystrophic neurons” value ([1]; CA3 region of the hippocampus) was “significantly reduced”. For the same molecule, the “tangle burden (Bielschowsky staining)” value ([1]; CA3 region of the hippocampus) was “no difference”, the “tau O-GlcNAcylation elevated (Otau(S400))” value ([2]; 4 months of dosing) was 9 fold and the “levels of total protein O-GlcNAcylation” value ([2]; 4 months, 500 mg/kg/day) was 185%. The “tau phosphorylation at S202/205” value ([2]; 14 days) was “returned towards basal levels”, the “tau phosphorylation at S262” value ([2]; 14 days) was “returned towards basal levels” and the “tau phosphorylation at S356” value ([2]; 14 days) was “still significantly reduced”. For the same molecule, the “tau phosphorylation at S396” value ([2]; 14 days) was “returned towards basal levels”, the “total protein O-GlcNAcylation in the CNS” value ([2]; 14 days of administration, 500 mg/kg/day, vs vehicle) was “significant increase” and the “tau phosphorylation at S400” value ([2]; acute treatment) was “did not alter”. For the same molecule, the “increase in tau O-GlcNAcylation (Otau(S400))” value ([2]; repeated injection (14 days), vs vehicle) was 9 fold, the “tau O-GlcNAcylation (Otau(S400))” value ([2]; single injection) was “small increase” and the “tau phosphorylation at S202/205” value ([2]; single injection) was “reduced”. For the same molecule, the “tau phosphorylation at S262” value ([2]; single injection) was “reduced”, the “tau phosphorylation at S356” value ([2]; single injection) was “reduced” and the “tau phosphorylation at S396” value ([2]; single injection) was “reduced”. The “total protein O-GlcNAcylation in the CNS” value ([2]; single injection, 500 mg/kg/day, 4 h, vs vehicle) was “significant increase”.

With `CC(=O)Nc1ncc(CN2CCC(Cc3ccccc3)CC2)s1` [Compound 28, N-(5-((4-benzylpiperidin-1-yl)methyl)thiazol-2-yl)acetamide] the IC50 [3] was < 200 nM and the EC50 [4] was < 200 nM.

For `CC(=O)Nc1ncc(CN(C)CCCc2ccccc2)s1` [Compound 21, N-(5-{[methyl-(3-phenyl-propyl)-amino]-methyl}-thiazol-2-yl)-acetamide], the IC50 [3, 5] was < 200 nM and the EC50 [4] was 1000 to 10000 nM.

Molecule `CC(=O)Nc1ncc(CN2CCC(c3ccc(F)cc3)CC2)s1` [Compound 42, N-(5-((4-(4-fluorophenyl)piperidin-1-yl)methyl)thiazol-2-yl)acetamide] has an IC50 [3, 5] of 200 to 1000 nM and an EC50 [4] of 200 to 1000 nM.
